# Measurements taken from ChEMBL document CHEMBL3885861, “Open TG-GATES”.
# Organism: Rattus norvegicus
# Experiment: Open TG-GATES - Regimen: Single
# Assay type: toxicity, organism-based, Sprague-Dawley
# Design: regimen Single, gender Male, age 6 weeks
# Conditions: in vivo, po, 0 mg/kg, route gavage, dose level Control; for APTT / Bas / Eos / Fbg / Hb / Ht / Lym / MCH / MCHC / MCV / Mono / Neu / PT / Plat / RBC / Ret / WBC: tissue Blood; for KIDNEY_L / KIDNEY_R / KIDNEY_TOTAL: tissue Kidney; for LIVER: tissue Liver; for A/G / ALP / ALT / AST / BUN / CRE / Ca / Cl / DBIL / GLC / IP / K / LDH / Na / PL / RALB / TBIL / TC / TG / TP / gamma-GTP: tissue Plasma
structure (smiles),measurement,setting,value
CCO [ALCOHOL],TERMINAL_BW,3 h,207 g
same,APTT,3 h,17.7 s
same,Bas,3 h,0%
same,Eos,3 h,1%
same,Fbg,3 h,200.4 mg/dL
same,Hb,3 h,13.3 g/dL
same,Ht,3 h,39.9%
same,Lym,3 h,76%
same,MCH,3 h,21.5 pg
same,MCHC,3 h,33.4%
same,MCV,3 h,64.2 fL
same,Mono,3 h,7.6%
same,Neu,3 h,15.2%
same,PT,3 h,12 s
same,Plat,3 h,110.3 x10_4/uL
same,RBC,3 h,622.4 x10_4/ul
same,Ret,3 h,8.9%
same,WBC,3 h,99.3 x10_2/uL
same,KIDNEY_L,3 h,0.9 g
same,KIDNEY_R,3 h,1 g
same,KIDNEY_TOTAL,3 h,1.9 g
same,LIVER,3 h,9.6 g
same,A/G,3 h,2.7
same,ALP,3 h,951 IU/L
same,ALT,3 h,39.2 IU/L
same,AST,3 h,69 IU/L
same,BUN,3 h,13 mg/dL
same,CRE,3 h,0.5 mg/dL
same,Ca,3 h,10.8 mg/dL
same,Cl,3 h,103.8 meq/L
same,DBIL,3 h,0.02 mg/dL
same,GLC,3 h,192 mg/dL
same,IP,3 h,8.7 mg/dL
same,K,3 h,4.5 meq/L
same,LDH,3 h,103.2 IU/L
same,Na,3 h,140 meq/L
same,PL,3 h,145.8 mg/dL
same,RALB,3 h,3.9 g/dL
same,TBIL,3 h,0.4 mg/dL
same,TC,3 h,83.8 mg/dL
same,TG,3 h,59.6 mg/dL
same,TP,3 h,5.3 g/dL
same,gamma-GTP,3 h,1.4 IU/L
same,TERMINAL_BW,6 h,207 g
same,APTT,6 h,18.8 s
same,Bas,6 h,0%
same,Eos,6 h,1%
same,Fbg,6 h,212 mg/dL
same,Hb,6 h,13.9 g/dL
same,Ht,6 h,41.4%
same,Lym,6 h,74%
same,MCH,6 h,21.8 pg
same,MCHC,6 h,33.5%
same,MCV,6 h,64.9 fL
same,Mono,6 h,9.2%
same,Neu,6 h,15.8%
same,PT,6 h,11.8 s
same,Plat,6 h,116.1 x10_4/uL
same,RBC,6 h,638.8 x10_4/ul
same,Ret,6 h,10.4%
same,WBC,6 h,90.5 x10_2/uL
same,KIDNEY_L,6 h,0.9 g
same,KIDNEY_R,6 h,1 g
same,KIDNEY_TOTAL,6 h,1.9 g
same,LIVER,6 h,9.6 g
same,A/G,6 h,2.4
same,ALP,6 h,727.6 IU/L
same,ALT,6 h,32.4 IU/L
same,AST,6 h,58.2 IU/L
same,BUN,6 h,11 mg/dL
same,CRE,6 h,0.5 mg/dL
same,Ca,6 h,10.4 mg/dL
same,Cl,6 h,105.2 meq/L
same,DBIL,6 h,0.06 mg/dL
same,GLC,6 h,184.8 mg/dL
same,IP,6 h,9.6 mg/dL
same,K,6 h,4.8 meq/L
same,LDH,6 h,62 IU/L
same,Na,6 h,139.6 meq/L
same,PL,6 h,141.8 mg/dL
same,RALB,6 h,3.8 g/dL
same,TBIL,6 h,0.4 mg/dL
same,TC,6 h,80.8 mg/dL
same,TG,6 h,55 mg/dL
same,TP,6 h,5.4 g/dL
same,gamma-GTP,6 h,2 IU/L
same,TERMINAL_BW,9 h,201.1 g
same,APTT,9 h,20.7 s
same,Bas,9 h,0%
same,Eos,9 h,1%
same,Fbg,9 h,199.2 mg/dL
same,Hb,9 h,13.5 g/dL
same,Ht,9 h,40.1%
same,Lym,9 h,66%
same,MCH,9 h,21.8 pg
same,MCHC,9 h,33.7%
same,MCV,9 h,64.6 fL
same,Mono,9 h,9.2%
same,Neu,9 h,23.6%
same,PT,9 h,12.2 s
same,Plat,9 h,112.2 x10_4/uL
same,RBC,9 h,620.8 x10_4/ul
same,Ret,9 h,11.7%
same,WBC,9 h,75.4 x10_2/uL
same,KIDNEY_L,9 h,0.9 g
same,KIDNEY_R,9 h,0.9 g
same,KIDNEY_TOTAL,9 h,1.9 g
same,LIVER,9 h,8.3 g
same,A/G,9 h,2.8
same,ALP,9 h,861 IU/L
same,ALT,9 h,30.8 IU/L
same,AST,9 h,66.8 IU/L
same,BUN,9 h,13.4 mg/dL
same,CRE,9 h,0.5 mg/dL
same,Ca,9 h,10.7 mg/dL
same,Cl,9 h,106.4 meq/L
same,DBIL,9 h,0.038 mg/dL
same,GLC,9 h,196.2 mg/dL
same,IP,9 h,9.8 mg/dL
same,K,9 h,5.1 meq/L
same,LDH,9 h,74.6 IU/L
same,Na,9 h,137.4 meq/L
same,PL,9 h,133.4 mg/dL
same,RALB,9 h,3.9 g/dL
same,TBIL,9 h,0.4 mg/dL
same,TC,9 h,74 mg/dL
same,TG,9 h,46.6 mg/dL
same,TP,9 h,5.3 g/dL
same,gamma-GTP,9 h,2 IU/L
same,TERMINAL_BW,24 h,219 g
same,APTT,24 h,17.7 s
same,Bas,24 h,0%
same,Eos,24 h,1.4%
same,Fbg,24 h,207.4 mg/dL
same,Hb,24 h,13.5 g/dL
same,Ht,24 h,39.6%
same,Lym,24 h,74.8%
same,MCH,24 h,22.3 pg
same,MCHC,24 h,34%
same,MCV,24 h,65.6 fL
same,Mono,24 h,9.8%
same,Neu,24 h,14.6%
same,PT,24 h,11.6 s
same,Plat,24 h,115.5 x10_4/uL
same,RBC,24 h,604 x10_4/ul
same,Ret,24 h,10%
same,WBC,24 h,101.6 x10_2/uL
same,KIDNEY_L,24 h,1 g
same,KIDNEY_R,24 h,1 g
same,KIDNEY_TOTAL,24 h,2 g
same,LIVER,24 h,10.4 g
same,A/G,24 h,2.6
same,ALP,24 h,862 IU/L
same,ALT,24 h,39.8 IU/L
same,AST,24 h,64.8 IU/L
same,BUN,24 h,17.2 mg/dL
same,CRE,24 h,0.5 mg/dL
same,Ca,24 h,10.9 mg/dL
same,Cl,24 h,103.4 meq/L
same,DBIL,24 h,0.006 mg/dL
same,GLC,24 h,194.4 mg/dL
same,IP,24 h,8.5 mg/dL
same,K,24 h,4.7 meq/L
same,LDH,24 h,87.8 IU/L
same,Na,24 h,139 meq/L
same,PL,24 h,150.2 mg/dL
same,RALB,24 h,4 g/dL
same,TBIL,24 h,0.3 mg/dL
same,TC,24 h,83 mg/dL
same,TG,24 h,100.8 mg/dL
same,TP,24 h,5.5 g/dL
same,gamma-GTP,24 h,1.4 IU/L
